Assay results from PMC6210068 (ACS Omega, 2018).
Like-named read-outs stand apart in the source and are kept apart here.

Legend:
KOR [1] = molecular target: T1, KOR (Homo sapiens, UniProt P41145); type: cell-based
hA3AR = molecular target: T2, hA3AR (Homo sapiens, UniProt P0DMS8); experiment: A3AR binding
T2 sequence (P0DMS8 1-318): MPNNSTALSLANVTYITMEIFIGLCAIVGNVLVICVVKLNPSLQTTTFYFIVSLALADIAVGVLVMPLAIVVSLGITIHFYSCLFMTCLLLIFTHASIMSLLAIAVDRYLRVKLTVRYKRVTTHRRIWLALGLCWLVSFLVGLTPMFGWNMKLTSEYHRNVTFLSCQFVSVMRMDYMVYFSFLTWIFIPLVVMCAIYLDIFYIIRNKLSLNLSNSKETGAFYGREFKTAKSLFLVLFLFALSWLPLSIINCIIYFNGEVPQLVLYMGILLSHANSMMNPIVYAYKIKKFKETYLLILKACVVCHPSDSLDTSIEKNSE

KOR [2] = molecular target: T1, KOR; experiment: biochemical; type: binding; conditions: for Ki: KOR, [3H]U69593, mean ± SEM, N = 2–4
rat kidney TSPO = rat kidney TSPO (Rattus norvegicus, UniProt P16257); experiment: Radioligand binding at TSPO; conditions: for Ki: TSPO, rat TSPO, [3H]PK11195
MOR [3] = molecular target: T3, MOR (Homo sapiens, UniProt P35372); experiment: biochemical; type: binding; conditions: for MOR, inhibition of radioligand binding at 10 μM (class): Table 2
hDAT = hDAT (Homo sapiens, UniProt Q01959); experiment: Radioligand binding at DAT; conditions: for DAT, inhibition, % of control at 10 μM: [3H]WIN35428, negative = enhanced radioligand binding
DOR [4] = molecular target: T4, DOR (Homo sapiens, UniProt P41143); experiment: Radioligand binding at DOR
DOR [5] = molecular target: T4, DOR; experiment: β-arrestin-recruitment TANGO assay at DOR; type: cell-based; conditions: 10 μM; for DOR Antag (%): vs naloxone 121 = 100% inhibition; for DOR Ag (%): vs standard agonist = 100%
MOR [6] = molecular target: T3, MOR; experiment: β-arrestin-recruitment TANGO assay at MOR; type: cell-based; conditions: 10 μM; for MOR Antag (%): vs naloxone 121 = 100% inhibition, agonist 99 (300 nM); for MOR Ag (%): vs standard agonist = 100%
hNOP = hNOP (Homo sapiens, UniProt P41146); experiment: Radioligand binding at NOP
KOR [7] = molecular target: T1, KOR; experiment: β-arrestin-recruitment TANGO assay at KOR; type: cell-based; conditions: 10 μM; vs naloxone 121 = 100% inhibition; agonist 109 (3 nM)
rat σ2 receptor = molecular target: T5, rat σ2 receptor (Rattus norvegicus, UniProt Q5U3Y7); experiment: PDSP binding, σ2 receptor
T5 sequence (Q5U3Y7 1-176): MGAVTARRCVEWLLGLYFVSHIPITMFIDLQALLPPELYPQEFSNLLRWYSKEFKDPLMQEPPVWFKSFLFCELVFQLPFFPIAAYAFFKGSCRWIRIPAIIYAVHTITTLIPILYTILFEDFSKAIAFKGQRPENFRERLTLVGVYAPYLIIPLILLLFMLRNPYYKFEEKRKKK

hA2AAR = hA2AAR (Homo sapiens, UniProt P29274); experiment: hA2AAR binding; conditions: read-out: binding inhibition at hA2AAR (% at 10 μM)
hA1AR = molecular target: T6, hA1AR (Homo sapiens, UniProt P30542); experiment: hA1AR binding; conditions: for inhibition at 10 µM: read-out: binding inhibition at hA1AR (% at 10 μM)
T6 sequence (P30542 1-326): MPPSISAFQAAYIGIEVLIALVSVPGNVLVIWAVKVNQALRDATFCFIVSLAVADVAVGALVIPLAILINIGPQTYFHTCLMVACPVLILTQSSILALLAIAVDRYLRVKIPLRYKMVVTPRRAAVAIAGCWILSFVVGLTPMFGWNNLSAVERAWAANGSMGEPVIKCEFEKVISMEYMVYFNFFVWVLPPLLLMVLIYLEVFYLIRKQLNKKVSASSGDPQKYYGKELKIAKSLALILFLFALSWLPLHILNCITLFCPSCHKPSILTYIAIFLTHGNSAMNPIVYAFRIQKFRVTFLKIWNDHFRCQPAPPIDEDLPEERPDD

Sequence of hDAT (Q01959 whole entry): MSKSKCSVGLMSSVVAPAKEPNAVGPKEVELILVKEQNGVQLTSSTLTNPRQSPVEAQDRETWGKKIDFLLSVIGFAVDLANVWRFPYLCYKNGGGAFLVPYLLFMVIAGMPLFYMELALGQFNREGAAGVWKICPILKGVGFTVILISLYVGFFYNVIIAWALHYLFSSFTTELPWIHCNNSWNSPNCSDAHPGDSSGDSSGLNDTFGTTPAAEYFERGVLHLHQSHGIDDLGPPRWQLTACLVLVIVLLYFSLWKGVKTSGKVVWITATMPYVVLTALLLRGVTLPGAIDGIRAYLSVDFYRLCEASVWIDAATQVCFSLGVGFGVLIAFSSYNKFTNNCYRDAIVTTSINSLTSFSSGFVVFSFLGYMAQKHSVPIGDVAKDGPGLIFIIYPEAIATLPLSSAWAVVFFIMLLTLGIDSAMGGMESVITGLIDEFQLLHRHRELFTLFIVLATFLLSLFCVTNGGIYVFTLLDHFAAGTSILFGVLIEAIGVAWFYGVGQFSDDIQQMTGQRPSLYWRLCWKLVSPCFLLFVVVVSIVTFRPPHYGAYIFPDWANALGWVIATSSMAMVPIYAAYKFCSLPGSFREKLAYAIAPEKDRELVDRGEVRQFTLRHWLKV
T3 sequence (P35372 whole entry): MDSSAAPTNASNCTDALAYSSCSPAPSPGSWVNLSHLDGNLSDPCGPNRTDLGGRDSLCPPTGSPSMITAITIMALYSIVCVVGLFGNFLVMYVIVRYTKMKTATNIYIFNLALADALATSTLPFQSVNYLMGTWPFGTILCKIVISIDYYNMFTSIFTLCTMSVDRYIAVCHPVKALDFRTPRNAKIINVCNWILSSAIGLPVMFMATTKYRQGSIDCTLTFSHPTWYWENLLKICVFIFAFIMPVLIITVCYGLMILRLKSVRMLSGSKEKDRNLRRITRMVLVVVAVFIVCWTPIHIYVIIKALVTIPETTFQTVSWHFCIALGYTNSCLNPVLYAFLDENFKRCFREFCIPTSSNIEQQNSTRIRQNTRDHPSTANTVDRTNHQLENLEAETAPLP
Sequence of hA2AAR (P29274 whole entry): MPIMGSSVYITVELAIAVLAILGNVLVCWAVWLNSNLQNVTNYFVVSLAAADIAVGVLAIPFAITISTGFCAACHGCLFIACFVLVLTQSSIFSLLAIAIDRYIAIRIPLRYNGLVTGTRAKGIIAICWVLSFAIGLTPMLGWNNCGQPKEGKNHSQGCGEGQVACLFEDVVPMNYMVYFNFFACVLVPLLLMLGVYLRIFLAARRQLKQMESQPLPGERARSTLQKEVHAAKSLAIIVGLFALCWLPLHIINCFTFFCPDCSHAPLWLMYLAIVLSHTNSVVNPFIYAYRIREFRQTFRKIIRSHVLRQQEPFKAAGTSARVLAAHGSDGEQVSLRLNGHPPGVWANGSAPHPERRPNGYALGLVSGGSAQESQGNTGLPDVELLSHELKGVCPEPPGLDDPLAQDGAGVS
Sequence of rat kidney TSPO (P16257 whole entry): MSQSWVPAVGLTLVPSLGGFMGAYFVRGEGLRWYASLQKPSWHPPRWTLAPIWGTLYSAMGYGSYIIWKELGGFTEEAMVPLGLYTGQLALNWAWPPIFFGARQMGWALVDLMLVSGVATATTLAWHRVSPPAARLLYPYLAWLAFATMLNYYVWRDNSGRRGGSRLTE
Sequence of hNOP (P41146 whole entry): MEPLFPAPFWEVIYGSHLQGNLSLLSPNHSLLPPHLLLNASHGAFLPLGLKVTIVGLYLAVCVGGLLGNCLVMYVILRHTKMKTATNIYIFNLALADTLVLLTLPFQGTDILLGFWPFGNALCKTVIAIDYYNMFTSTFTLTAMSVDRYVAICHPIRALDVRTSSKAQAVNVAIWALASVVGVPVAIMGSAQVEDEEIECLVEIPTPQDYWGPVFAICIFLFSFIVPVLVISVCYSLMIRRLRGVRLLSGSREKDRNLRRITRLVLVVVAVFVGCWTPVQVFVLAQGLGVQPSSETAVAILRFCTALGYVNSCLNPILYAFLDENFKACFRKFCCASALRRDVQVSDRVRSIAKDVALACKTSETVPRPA
T1 sequence (P41145 whole entry): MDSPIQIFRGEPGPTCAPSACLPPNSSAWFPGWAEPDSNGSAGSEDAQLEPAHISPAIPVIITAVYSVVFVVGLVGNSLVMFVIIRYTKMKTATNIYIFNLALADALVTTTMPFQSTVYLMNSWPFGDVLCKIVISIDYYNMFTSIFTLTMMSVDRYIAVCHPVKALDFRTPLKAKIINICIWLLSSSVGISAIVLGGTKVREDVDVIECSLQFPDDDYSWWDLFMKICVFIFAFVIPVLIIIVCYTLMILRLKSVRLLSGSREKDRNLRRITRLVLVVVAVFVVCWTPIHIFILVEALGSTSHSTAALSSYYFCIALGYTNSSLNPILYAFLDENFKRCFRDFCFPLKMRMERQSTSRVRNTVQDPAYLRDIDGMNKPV
T4 sequence (P41143 whole entry): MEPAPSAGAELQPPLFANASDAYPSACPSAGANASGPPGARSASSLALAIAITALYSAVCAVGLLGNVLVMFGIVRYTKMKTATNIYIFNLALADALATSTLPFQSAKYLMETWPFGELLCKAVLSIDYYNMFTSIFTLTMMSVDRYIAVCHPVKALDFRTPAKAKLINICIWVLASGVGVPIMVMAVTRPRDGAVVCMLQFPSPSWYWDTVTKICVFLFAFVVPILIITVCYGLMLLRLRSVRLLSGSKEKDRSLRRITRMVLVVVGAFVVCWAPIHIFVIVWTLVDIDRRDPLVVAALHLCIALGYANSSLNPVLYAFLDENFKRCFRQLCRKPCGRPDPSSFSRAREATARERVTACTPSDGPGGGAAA

Structure (SMILES) | Ki (hA3AR) [nM] | Ki (KOR [2]) [nM] | DAT, inhibition, % of control at 10 μM (hDAT) | Ki (DOR [4]) [nM] | Ki (rat kidney TSPO) [nM] | Ki (MOR [3]) [nM] | inhibition at 10 µM (hA1AR) [%] | other results
CCOC(=O)[C@@]12C[C@@H]1[C@@H](n1ccc3c(NC)nc(I)nc31)[C@H](O)[C@@H]2O [compound 39, Ethyl(1S,2R,3S,4R,5S)-2,3-dihydroxy-4-(2-iodo-4-(methylamino)-7H-pyrrolo[2,3-d]pyrimidin-7-yl)bicyclo[3.1.0]hexane-1-carboxylate] | 390 ± 139 | 104 ± 35 | <10% | 1590 ± 280 | – | – | – | βarrestin2 recruitment, Imax (% 120) (KOR [1]; antagonism of 1 μM U69593 98): 77 ± 3 % 120; TSPO, inhibition of radioligand binding at 10 μM (class) (rat kidney TSPO; Table 2): ^d (<30% inhibition of radioligand binding at 10 μM); MOR, inhibition of radioligand binding at 10 μM (class) (MOR [3]): ^c (30–50% inhibition of radioligand binding at 10 μM)
CCCCC(=O)[C@@]12C[C@@H]1[C@@H](n1ccc3c(NC)nc(C#Cc4ccc(Cl)s4)nc31)[C@H](O)[C@@H]2O [compound 44] | 98 ± 30 | 2610 ± 660 | –9% | – | – | – | – | DOR Antag (%) (DOR [5]): 20.3%; DOR Ag (%) (DOR [5]): 6.7%; MOR Antag (%) (MOR [6]): –44.4%; MOR Ag (%) (MOR [6]): 6.0%; Ki (hNOP): > 10000 nM; KOR Antag (%) (KOR [7]): 65.5%
CCOC(=O)[C@@]12C[C@@H]1[C@@H](n1ccc3c(NC)nc(C#Cc4ccc(Br)s4)nc31)[C@H](O)[C@@H]2O [compound 29, Ethyl(1S,2R,3S,4R,5S)-4-(2-((5-bromothiophen-2-yl)ethynyl)-4-(methylamino)-7H-pyrrolo[2,3-d]pyrimidin-7-yl)-2,3-dihydroxybicyclo[3.1.0]hexane-1-carboxylate] | 466 ± 20 | 39 ± 1 | –102 ± 8 (3) % | 437 ± 94 | 765 ± 118 | 368 ± 135 | – | preference for KOR in comparison to DOR (KOR [2]; ratio of Ki): 11 fold; preference for KOR in comparison to MOR (KOR [2]; ratio of Ki): 9 fold; preference for KOR in comparison to TSPO (KOR [2]; ratio of Ki): ~20 fold; DOR Antag (%) (DOR [5]): 93.2%; DOR Ag (%) (DOR [5]): –1.1%; MOR Antag (%) (MOR [6]): 96.9%; MOR Ag (%) (MOR [6]): 1.6%; Ki (hNOP): 2760 ± 670 nM; KOR Antag (%) (KOR [7]): 104.5%; EC50 (hDAT): > 1000 nM
O[C@@H]1[C@H](O)[C@@H]2C[C@@H]2[C@H]1n1cnc2c(NCCc3ccccc3)nc(C#Cc3ccccc3)nc21 [compound 51] | – | – | 24% | – | – | – | – | TSPO, inhibition of radioligand binding at 10 μM (class) (rat kidney TSPO; Table 4): ^g (<30% inhibition of radioligand binding at 10 μM); Ki (rat σ2 receptor): 1480 nM; DOR, inhibition of radioligand binding at 10 μM (class) (DOR [4]; Table 4): ^g (<30% inhibition of radioligand binding at 10 μM)
CCOC(=O)[C@@]12C[C@@H]1[C@@H](n1ccc3c(NCC4CC4)nc(C#Cc4ccccc4)nc31)[C@H](O)[C@@H]2O [compound 42, Ethyl(1S,2R,3S,4R,5S)-4-(4-((cyclopropylmethyl)amino)-2-(phenylethynyl)-7H-pyrrolo[2,3-d]pyrimidin-7-yl)-2,3-dihydroxybicyclo[3.1.0]hexane-1-carboxylate] | 791 ± 433 | 1400 ± 210 | –13% | – | 4470 ± 1330 | 1300 ± 530 | 34 | Ki (rat σ2 receptor): 1110 nM; inhibition at 10 µM (hA2AAR): 20%; DOR, inhibition of radioligand binding at 10 μM (class) (DOR [4]; Table 2): ^c (30–50% inhibition of radioligand binding at 10 μM)
CCOC(=O)[C@@]12C[C@@H]1[C@@H](n1ccc3c(NC4CC4)nc(C#Cc4ccccc4)nc31)[C@H](O)[C@@H]2O [compound 41, Ethyl(1S,2R,3S,4R,5S)-4-(4-(cyclopropylamino)-2-(phenylethynyl)-7H-pyrrolo[2,3-d]pyrimidin-7-yl)-2,3-dihydroxybicyclo[3.1.0]hexane-1-carboxylate] | 228 ± 115 | 852 ± 137 | –312% | 2400 ± 90 | – | 2110 ± 590 | 44 | TSPO, inhibition of radioligand binding at 10 μM (class) (rat kidney TSPO; Table 2): ^c (30–50% inhibition of radioligand binding at 10 μM); inhibition at 10 µM (hA2AAR): 25%
O[C@@H]1[C@H](O)[C@@H]2C[C@@H]2[C@H]1n1cnc2c(NCCc3ccccc3)nc(C#Cc3ccccc3Cl)nc21 [compound 52] | – | – | 7% | – | 877 ± 368 | – | – | Ki (rat σ2 receptor): 1820 nM; DOR, inhibition of radioligand binding at 10 μM (class) (DOR [4]; Table 4): ^f (30–50% inhibition of radioligand binding at 10 μM)
Oc1ccc2c3c1O[C@H]1c4[nH]c5c(c4C[C@@]4(O)[C@@H](C2)N(CC2CC2)CC[C@]314)C[C@@]1(O)[C@H]2Cc3ccc(O)c4c3[C@@]1(CCN2CC1CC1)[C@H]5O4 [compound 120, Norbinaltorphimine, reference compound] | – | – | – | – | – | – | – | βarrestin2 recruitment, Imax (% 120) (KOR [1]): 100 % 120
CCOC(=O)[C@@]12C[C@@H]1[C@@H](n1cnc3c(NC)nc(C#Cc4ccc(Br)s4)nc31)[C@H](O)[C@@H]2O [compound 25] | – | 975 ± 198 | –430% | – | 1520 ± 250 | – | – | DOR Antag (%) (DOR [5]): –6.0%; DOR Ag (%) (DOR [5]): –1.7%; MOR Antag (%) (MOR [6]): 22.6%; MOR Ag (%) (MOR [6]): –1.2%; Ki (hNOP): > 10000 nM; KOR Antag (%) (KOR [7]): 88.1%; MOR, inhibition of radioligand binding at 10 μM (class) (MOR [3]): ^c (30–50% inhibition of radioligand binding at 10 μM); DOR, inhibition of radioligand binding at 10 μM (class) (DOR [4]; Table 2): ^c (30–50% inhibition of radioligand binding at 10 μM)
CNC(=O)[C@@]12C[C@@H]1[C@@H](n1cnc3c(NCc4cccc(Cl)c4)nc(C#Cc4ccc(F)c(F)c4)nc31)[C@H](O)[C@@H]2O [compound 4] | – | – | 16% | 2480 ± 790 | ~300 | – | – | DOR Antag (%) (DOR [5]): 25.3%; DOR Ag (%) (DOR [5]): –10.3%; MOR Antag (%) (MOR [6]): 18.8%; MOR Ag (%) (MOR [6]): –1.6%; Ki (hNOP): 4560 ± 450 nM; KOR Antag (%) (KOR [7]): 125%
CNC(=O)[C@@]12C[C@@H]1[C@@H](n1cnc3c(NCc4cccc(Cl)c4)nc(C#Cc4ccc(F)cc4)nc31)[C@H](O)[C@@H]2O [compound 7] | – | – | 21% | – | ~300 | – | 22 | –
O[C@@H]1[C@H](O)[C@@H]2C[C@@H]2[C@H]1n1ccc2c(NC(C3CC3)C3CC3)nc(C#Cc3ccccc3)nc21 [compound 56, (1R,2R,3S,4R,5S)-4-(4-((Dicyclopropylmethyl)amino)-2-(phenylethynyl)-7H-pyrrolo[2,3-d]pyrimidin-7-yl)bicyclo[3.1.0]hexane-2,3-diol] | 178 ± 32 | – | – | 2550 ± 660 | 4210 ± 1840 | 1440 ± 750 | – | KOR, inhibition of radioligand binding at 10 μM (class) (KOR [2]; Table 5, 10 μM): ^d (30–50% inhibition of radioligand binding at 10 μM); Ki (rat σ2 receptor): 670 nM; Ki (hA1AR): 650 nM
CCCNc1nc(C#Cc2ccc(Cl)s2)nc2c1ncn2[C@H]1[C@H](O)[C@H](O)[C@]2(C(=O)NC)C[C@H]12 [compound 18] | – | – | –159% | – | 1310 ± 210 | – | 22 | DOR, inhibition of radioligand binding at 10 μM (class) (DOR [4]; Table 1): ^e (30–50% inhibition of radioligand binding at 10 μM)
CCOC(=O)[C@@]12C[C@@H]1[C@@H](n1ccc3c(NC)nc(C#Cc4ccccc4)nc31)[C@H](O)[C@@H]2O [compound 40, Ethyl(1S,2R,3S,4R,5S)-2,3-dihydroxy-4-(4-(methylamino)-2-(phenylethynyl)-7H-pyrrolo[2,3-d]pyrimidin-7-yl)bicyclo[3.1.0]hexane-1-carboxylate] | 344 ± 40 | 91.5 ± 23.7 | –66% | 1780 ± 410 | > 10000 | 1480 ± 450 | 35 | βarrestin2 recruitment, Imax (% 120) (KOR [1]; antagonism of 1 μM U69593 98): 76 ± 2 % 120; inhibition at 10 µM (hA2AAR): 22%
